# Test results from patent publication EP0537947A1, “Naphthoquinone derivatives for the treatment of parasitic infections” (THE WELLCOME FOUNDATION LIMITED, priority 1991, dated 1993).
# Counter-ions that a name gives are not always drawn. Like-named read-outs stand apart in the source and are kept apart here.
# Assays:
# [1] = system: Plasmodium yoelii; experiment: In vivo activity against Plasmodium yoelii in mice (modified 4-day suppressive test)
# Protocol: Compounds A and B were administered orally and intravenously, and compound (I) was administered orally only, in the manner described below.
# The test method is a modified version of the 4-day suppressive test. The YM strain of P.yoelii was maintained in mice by twice weekly passage. Infected blood was collected and diluted with normal saline to give an inoculum of 3x10⁶ parasitized enythrocytes/ml. On the morning of Day 1 the test animals (male CD-1 mice weighing 18-20g) were infected intravenously via the tail vein with 0.1ml of inoculum/mouse.
# Test compounds A, B and (I) were formulated by ball milling in 0.25% celacol with stainless steel balls. The total requirement was formulated at the beginning of a test and thereafter stored at 4°C.
# Each test compound was administered orally (p.o.) to four or more usually five groups of mice, each group receiving a different dose level (dilution). A further group of mice was administered celacol only, as a control (ie. a total of 30 mice are used to obtain each ED₅₀). The mice were dosed orally in the late afternoon of Day 1 and in the early morning and late afternoon of days 2, 3 and 4, giving a total of seven doses in four days or 24 hours post-infection i.e. on day 2 when given as a single dose.
# I.v. formulations of test Compounds A and B were prepared by dissolving the compound in water immediately before use, and administered via the tail vein as a single dose 24 hours post-infection, i.e. on day 2.
# On the morning of day 5 smears of tail blood were prepared from each mouse and the parasitaemia counted. Data were analysed to yield ED₅₀ values by the best fit to a sigmoidal dose response curve.
# [2] = Solubility in water; type: physicochemical; details: statement in words
# [3] = Plasmodium yoelii, po, dosing schedule 1 x p.o. (single dose 24 hours post-infection), YM strain of P.yoelii, male CD-1 mice, parasitaemia on day 5, read-out: ED50
Compound,"ED50 ([1]; Plasmodium yoelii, iv, 1 x i.v., calculated in terms of the amount of compound (I) administered, read-out: Weight adjusted ED50) [mg/kg]","ED50 ([1]; Plasmodium yoelii, iv, dosing schedule 1 x i.v. (single dose 24 hours post-infection, dissolved in water), YM strain of P.yoelii, male CD-1 mice, parasitaemia on day 5, read-out: ED50) [mg/kg]","ED50 ([1]; Plasmodium yoelii, po, 1 x p.o., calculated in terms of the amount of compound (I) administered, read-out: Weight adjusted ED50) [mg/kg]","ED50 [1, 3] [mg/kg]",solubility in water [2],"Weight adjusted ED50 ([1]; 7 x p.o., calculated in terms of the amount of compound (I) administered) [mg/kg]","ED50 ([1]; dosing schedule 7 x p.o. (seven doses in four days), YM strain of P.yoelii, male CD-1 mice, parasitaemia on day 5) [mg/kg]","ED50 ([1]; Plasmodium yoelii, po, dosing schedule 7 x p.o. (seven doses in four days), YM strain of P.yoelii, male CD-1 mice, parasitaemia on day 5, read-out: ED50) [mg/kg]"
"O=C1C(OP(=O)(O)O)=C([C@H]2CC[C@H](c3ccc(Cl)cc3)CC2)C(=O)c2ccccc21 [Compound (B), 3-[trans--4-(4-Chlorophenyl)cyclohexyl]-1,4-dioxo-2-naphthylphosphate N-methylglucosamine salt]",0.12,0.27,0.1,0.23,readily soluble in cold water,–,–,–
"3-[trans-4-(4-Chlorophenyl)cyclohexyl]-1,4-dioxo-2-naphthylphosphate bis diethanolamine salt [Compound (A)]",–,–,–,–,–,0.056,0.1,–
"O=C1C(O)=C([C@H]2CC[C@H](c3ccc(Cl)cc3)CC2)C(=O)c2ccccc21 [Compound (I), 2-[trans-4-(4-Chlorophenyl)cyclohexyl]-3-hydroxy-1,4-naphthoquinone, reference compound]",–,–,–,0.09,–,–,–,0.03
